Results on 18 compounds are retold here after patent US9290459B1, “Substituted bicyclic dihydropyrimidinones and their use as inhibitors of neutrophil elastase activity” (Boehringer Ingelheim International GmbH, priority 2013, dated 2016).

Converted amounts (≈) assume the structure as drawn.

Series [1] has as its target Human neutrophil elastase (Homo sapiens (Human), UniProt P08246). The series is described as follows: Human Neutrophil Elastase Assay. The following applies: human neutrophil elastase, substrate MeOSuc-Ala-Ala-Pro-Val-AMC 250 μM, pH 7.5; read-out: IC50. Type of series: biochemical.
Series [2] concerns the target neutrophil elastase in human plasma (Homo sapiens (Human), UniProt P08246). The series is described as follows: Neutrophil elastase inhibitory activity in human plasma (zymosan-stimulated blood). Type of series: biochemical. The following applies: neutrophil elastase enriched human plasma from zymosan-stimulated blood; read-out: EC50.
Protocol: Assay for the Determination of Neutrophil Elastase Inhibitory Activity in Human Plasma
Citrated blood from human healthy donors is mixed with zymosan suspension and incubated at room temperature. This leads to the stimulation of neutrophils and the release of neutrophil elastase into the plasma. The stimulated blood is centrifuged to generate the neutrophil elastase enriched plasma.
Various concentrations of the neutrophil elastase inhibitor are incubated with plasma. […] A dose response curve is generated to calculate the EC50 of the inhibitor.
Series [3] in a line: Metabolic stability with human liver microsomes. Type of series: in vitro ADME. The note with it: for half-life at 1 μM: human, microsomes, pH 7.6.
A short description of series [4]: Aqueous solubility. The following applies: McIlvaine buffer pH 6.8, 2.5% DMSO, 24 h shaking; for solubility at 24 h: McIlvaine buffer pH 6.8 with 2.5% DMSO, pH 6.8, aqueous buffer, kinetic from dmso stock. Format: physicochemical. The method, then:
Assay for Determination of Aqueous Solubility […] After 24 h of shaking, the solutions or suspensions are filtered and analyzed by LC-UV. The amount dissolved in buffer is compared to the amount dissolved in the acetonitrile/water (1/1) solution.

The nature of series [5]: Drug transport across human Caco-2 cells. Format: in vitro ADME. The following applies: human; for Papp A→B at 10 µM / Papp B→A at 10 µM: Caco-2, pH 7.2, Caco-2 monolayers, pH 7.2, 37° C.; for Papp A→B at 10 µM: apical-to-basal, read-out: PEAB; for Papp B→A at 10 µM: basal-to-apical, read-out: PEBA; for efflux ratio at 10 μM: Caco-2, pH 7.2, PEBA/PEAB, Caco-2. Background: Passage across Caco-2 layers is used to estimate intestinal permeability.

Sequence of neutrophil elastase in human plasma (P08246 30-247): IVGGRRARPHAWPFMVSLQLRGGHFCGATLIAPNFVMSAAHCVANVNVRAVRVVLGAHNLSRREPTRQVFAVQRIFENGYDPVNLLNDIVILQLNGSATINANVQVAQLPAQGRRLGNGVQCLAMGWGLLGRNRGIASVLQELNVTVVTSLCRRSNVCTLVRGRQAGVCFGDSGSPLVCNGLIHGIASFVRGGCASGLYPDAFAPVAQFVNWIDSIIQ
Sequence of Human neutrophil elastase (P08246 30-247): as above

`CCNC(=O)N1C(=O)N(c2ccnc(C(F)(F)F)c2)C2=C(C(=O)CC2)C1c1ccc(C#N)cc1` (racemic) [Example 54.2]: in series [1], the IC50 – broadly, the concentration needed to halve the response being measured – came to 3.3 nM. For the same compound, in series [2], the EC50 (usually the concentration that produces a half-maximal response) is below 1 nM. Besides, the “t1/2 INVITRO” value in series [3] (pooled human liver microsomes, 1 mg/ml protein, 1 μM test compound, 37° C., NADPH) was above 2.17 h. For the same compound, in series [4], the Aqueous solubility – broadly, how much of the substance goes into solution per volume – is 44 µg/mL.
For `CCS(=O)(=O)c1cc(C#N)ccc1[C@H]1NC(=O)N(c2cccc(C(F)(F)F)c2)C2=C1C(=O)CC2` [Example 14A, (S)-4-(2,5-Dioxo-1-(3-(trifluoromethyl)phenyl)-2,3,4,5,6,7-hexahydro-1H-cyclopenta[d]pyrimidin-4-yl)-3-(ethylsulfonyl)benzonitrile], in series [1], the IC50 is 1.2 nM. Moreover, the EC50 in series [2] was determined as 1 nM. The half-life (in general, the time needed for the level to fall by half in the phase considered) at 1 μM in series [3] is above 2.17 h. In series [5], the Papp A→B at 10 µM came out at 10.3 ×10⁻⁶ cm/s; the Papp B→A at 10 µM came out at 94.8 ×10⁻⁶ cm/s; the efflux ratio – broadly, a quotient of directional permeabilities that is used to spot active efflux – at 10 μM came out at 9.2. Besides, the solubility (as a rule, the dissolved amount per volume that the medium holds) at 24 h in series [4] turned out to be 62 µg/mL (≈ 127 µM).
`CS(=O)(=O)c1cc(C#N)ccc1[C@H]1NC(=O)N(c2cccc(C(F)F)c2)C2=C1C(=O)CC2` [Example 15.4A, (S)-4-(1-(3-(Difluoromethyl)phenyl)-2,5-dioxo-2,3,4,5,6,7-hexahydro-1H-cyclopenta[d]pyrimidin-4-yl)-3-(methylsulfonyl)benzonitrile]: the IC50 in series [1] stood at 2.9 nM. In addition, in series [2], the EC50 was determined as 2 nM. Further, in series [3], the half-life at 1 μM was above 2.17 h. In addition, in series [5], the Papp A→B at 10 µM is 3 ×10⁻⁶ cm/s, the Papp B→A at 10 µM was 46 ×10⁻⁶ cm/s and the efflux ratio at 10 μM is 15. The solubility at 24 h in series [4] worked out at 69 µg/mL (≈ 151 µM).
As to `CS(=O)(=O)c1cc(C#N)ccc1C1C2=C(CCC2=O)N(c2cccc(C(F)(F)F)c2)C(=O)N1CC(=O)O` (centres unmarked) [Example 19, 2-(4-(4-Cyano-2-(methylsulfonyl)phenyl)-2,5-dioxo-1-(3-(trifluoromethyl)phenyl)-6,7-dihydro-1H-cyclopenta[d]pyrimidin-3(2H,4H,5H)-yl)acetic acid], the IC50 in series [1] amounted to 1.3 nM. Also, the EC50 in series [2] was determined as 2 nM. Also, the half-life at 1 μM in series [3] is above 2.17 h. Moreover, the concentration in solution in series [4] (solubility at 24 h) came to 89 µg/mL (≈ 167 µM).
Regarding `CN(CCO)C(=O)CN1C(=O)N(c2cccc(C(F)(F)F)c2)C2=C(C(=O)CC2)C1c1ccc(C#N)cc1S(C)(=O)=O` (centres unmarked) [Example 21, 2-(4-(4-Cyano-2-(methylsulfonyl)phenyl)-2,5-dioxo-1-(3-(trifluoromethyl)phenyl)-6,7-dihydro-1H-cyclopenta[d]pyrimidin-3(2H,4H,5H)-yl)-N-(2-hydroxyethyl)-N-methyl-acetamide], the half-inhibitory concentration (IC50) in series [1] was below 1 nM. Also, the 50% effective concentration (EC50) in series [2] is 1 nM. In addition, the half-life at 1 μM in series [3] was above 2.17 h. In series [4], this compound showed a solubility at 24 h of 87 µg/mL (≈ 147 µM).
`N#CCN1C(=O)N(c2cccc(C(F)(F)F)c2)C2=C(C(=O)CC2)C1c1ccc(C#N)cc1` (centres unmarked) [Example 22, 4-(3-(Cyanomethyl)-2,5-dioxo-1-(3-(trifluoromethyl)phenyl)-2,3,4,5,6,7-hexahydro-1H-cyclopenta[d]pyrimidin-4-yl)benzonitrile]: in series [1], the IC50 was 25.6 nM. For the same compound, the EC50 in series [2] was found to be 23 nM. The half-life at 1 μM in series [3] was above 2.17 h. Further, in series [5], the Papp A→B at 10 µM turned out to be 36.5 ×10⁻⁶ cm/s, the Papp B→A at 10 µM is 54.5 ×10⁻⁶ cm/s and the efflux ratio at 10 μM stood at 1.5. This compound gave a solubility at 24 h in series [4] of 13 µg/mL (≈ 29.8 µM).
Consider `CCN1C(=O)N(c2cccc(C(F)(F)F)c2)C2=C(C(=O)CC2)C1c1ccc(C#N)cc1S(C)(=O)=O` (centres unmarked) [Example 24, 4-(3-Ethyl-2,5-dioxo-1-(3-(trifluoromethyl)phenyl)-2,3,4,5,6,7-hexahydro-1H-cyclopenta[d]pyrimidin-4-yl)-3-(methylsulfonyl)benzonitrile], for which the IC50 in series [1] came out at 1.6 nM. In addition, in series [2], the EC50 stood at 2 nM. Moreover, in series [3], the half-life at 1 μM was above 2.17 h. Also, in series [5], the Papp A→B at 10 µM is 62.5 ×10⁻⁶ cm/s, the Papp B→A at 10 µM turned out to be 85.6 ×10⁻⁶ cm/s and the efflux ratio at 10 μM came to 1.4.
For `CN1C(=O)N(c2cccc(C(F)(F)F)c2)C2=C(C(=O)CC2)C1c1ccc(C#N)cn1` (centres unmarked) [Example 26.1], in series [1], the IC50 turned out to be 26.8 nM. Moreover, the EC50 in series [2] was 13 nM. The compound also returned a half-life at 1 μM in series [3] above 2.17 h. Besides, in series [5], the Papp A→B at 10 µM stood at 67.7 ×10⁻⁶ cm/s, the Papp B→A at 10 µM came out at 64.2 ×10⁻⁶ cm/s and the efflux ratio at 10 μM is 0.9. In series [4], the concentration in solution (solubility at 24 h) came to 41 µg/mL (≈ 99.4 µM).
On to `CN1C(=O)N(c2cccc(C(F)F)c2)C2=C(C(=O)CC2)[C@H]1c1ccc(C#N)cc1` [Example 26A, (R)-4-(1-(3-(Difluoromethyl)phenyl)-3-methyl-2,5-dioxo-2,3,4,5,6,7-hexahydro-1H-cyclopenta[d]pyrimidin-4-yl)benzonitrile], for which, in series [1], the concentration for half-maximal inhibition (IC50) worked out at 2.4 nM. In series [2], the EC50 amounted to 2 nM. In addition, the half-life at 1 μM in series [3] was above 2.17 h. In series [5], the Papp A→B at 10 µM worked out at 72 ×10⁻⁶ cm/s, the Papp B→A at 10 µM is 76 ×10⁻⁶ cm/s and the efflux ratio at 10 μM came to 1.1. This compound also had a solubility at 24 h in series [4] of 41 µg/mL (≈ 104 µM).
Regarding `CCOC(=O)N1C(=O)N(c2cccc(C(F)(F)F)c2)C2=C(C(=O)CC2)C1c1ccc(C#N)cc1` (centres unmarked) [Example 31, Ethyl 4-(4-Cyanophenyl)-2,5-dioxo-1-(3-(trifluoromethyl)phenyl)-4,5,6,7-tetrahydro-1H-cyclopenta[d]pyrimidine-3(2H)-carboxylate], the IC50 in series [1] came out at 4.2 nM. For the same compound, the EC50 in series [2] was determined as 14 nM. This compound came in with a half-life at 1 μM in series [3] above 2.17 h. In addition, in series [5], the Papp A→B at 10 µM is 80.9 ×10⁻⁶ cm/s, the Papp B→A at 10 µM was determined as 69.5 ×10⁻⁶ cm/s and the efflux ratio at 10 μM turned out to be 0.9.
As to `COC(=O)N1C(=O)N(c2cccc(C(F)(F)F)c2)C2=C(C(=O)CC2)[C@H]1c1ccc(C#N)cc1S(C)(=O)=O` [Example 33, (S)-Methyl 4-(4-cyano-2-(methylsulfonyl)phenyl)-2,5-dioxo-1-(3-(trifluoromethyl)-phenyl)-4,5,6,7-tetrahydro-1H-cyclopenta[d]pyrimidine-3(2H)-carboxylate], in series [1], the IC50 is below 1 nM. Further, the EC50 in series [2] is below 1 nM. The half-life at 1 μM in series [3] was above 2.17 h. In series [5], the Papp A→B at 10 µM was determined as 9.08 ×10⁻⁶ cm/s, the Papp B→A at 10 µM was determined as 71.2 ×10⁻⁶ cm/s and the efflux ratio at 10 μM stood at 7.8. In series [4], this compound had a solubility at 24 h of 43 µg/mL (≈ 80.6 µM).
On to `CCS(=O)(=O)N1C(=O)N(c2cccc(C(F)(F)F)c2)C2=C(C(=O)CC2)C1c1ccc(C#N)cc1` (centres unmarked) [Example 35, 4-(3-(Ethylsulfonyl)-2,5-dioxo-1-(3-(trifluoromethyl)phenyl)-2,3,4,5,6,7-hexahydro-1H-cyclopenta[d]pyrimidin-4-yl)benzonitrile], for which the IC50 in series [1] stood at 2.7 nM. The EC50 in series [2] was 7 nM. The half-life at 1 μM in series [3] was above 2.17 h. Moreover, in series [5], the Papp A→B at 10 µM amounted to 56.9 ×10⁻⁶ cm/s, the Papp B→A at 10 µM was 73.8 ×10⁻⁶ cm/s and the efflux ratio at 10 μM was determined as 1.3.
For the compound `CS(=O)(=O)N1C(=O)N(c2cccc(C(F)(F)F)c2)C2=C(C(=O)CC2)C1c1ccc(C#N)cc1Cl` (centres unmarked) [Example 37.2], in series [1], the IC50 worked out at 9.3 nM. Also, the EC50 in series [2] turned out to be 17 nM. Besides, in series [5], the Papp A→B at 10 µM is 84.9 ×10⁻⁶ cm/s, the Papp B→A at 10 µM was determined as 99.8 ×10⁻⁶ cm/s and the efflux ratio at 10 μM was 1.2.
On to `N#Cc1ccc([C@@H]2C3=C(CCC3=O)N(c3cccc(C(F)(F)F)c3)C(=O)N2C(=O)N[C@H]2CCC[C@@H]2O)cc1` [Example 45.4], for which the half-life at 1 μM in series [3] was above 2.17 h. Also, in series [5], the Papp A→B at 10 µM came to 38.1 ×10⁻⁶ cm/s, the Papp B→A at 10 µM turned out to be 77.2 ×10⁻⁶ cm/s and the efflux ratio at 10 μM was 2. For the same compound, in series [4], the concentration in solution (solubility at 24 h) was 28 µg/mL (≈ 53.4 µM).
In the case of `CS(=O)(=O)c1cc(C#N)ccc1[C@@H]1C2=C(CCC2=O)N(c2cccc(C(F)(F)F)c2)C(=O)N1C(=O)NC1CC1` [Example 47.4], the IC50 in series [1] is below 1 nM. In series [2], the EC50 was below 1 nM. Moreover, the half-life at 1 μM in series [3] was above 2.17 h. In series [5], the Papp A→B at 10 µM came out at 7.74 ×10⁻⁶ cm/s and the Papp B→A at 10 µM came out at 85.5 ×10⁻⁶ cm/s. For the same compound, in series [4], the solubility at 24 h was found to be 19 µg/mL (≈ 34 µM).
Take `CNC(=O)N1C(=O)N(c2cccc(C(F)(F)F)c2)C2=C(C(=O)CC2)[C@H]1c1ccc(C#N)cc1F` [Example 49A, (S)-4-(4-Cyano-2-fluorophenyl)-N-methyl-2,5-dioxo-1-(3-(trifluoromethyl)phenyl)-4,5,6,7-tetrahydro-1H-cyclopenta[d]pyrimidine-3(2H)-carboxamide]: the IC50 in series [1] was below 1 nM. The EC50 in series [2] amounted to 4 nM. In series [3], this compound had a half-life at 1 μM above 2.17 h. In series [5], the Papp A→B at 10 µM amounted to 83.1 ×10⁻⁶ cm/s, the Papp B→A at 10 µM turned out to be 64.8 ×10⁻⁶ cm/s and the efflux ratio at 10 μM came out at 0.8.
For the compound `N#Cc1ccc(C2C3=C(CCC3=O)N(c3cccc(C(F)F)c3)C(=O)N2C(=O)NCCO)cc1` (centres unmarked) [Example 52.3], in series [1], the IC50 is below 1 nM. Besides, the EC50 in series [2] is below 1 nM. Also, the half-life at 1 μM in series [3] was above 2.17 h. Moreover, the solubility at 24 h in series [4] is 91 µg/mL (≈ 195 µM).
For the compound `CC(C)(O)CNC(=O)N1C(=O)N(c2ccnc(C(F)(F)F)c2)C2=C(C(=O)CC2)C1c1ccc(C#N)cc1` (centres unmarked) [Example 55, 4-(4-Cyanophenyl)-N-(2-hydroxy-2-methylpropyl)-2,5-dioxo-1-(2-(trifluoromethyl)-pyridin-4-yl)-4,5,6,7-tetrahydro-1H-cyclopenta[d]pyrimidine-3(2H)-carboxamide], the IC50 in series [1] came out at 6.1 nM. Also, the EC50 in series [2] stood at 3 nM. Further, in series [3], the half-life at 1 μM is above 2.17 h.
